These results are taken from patent US20260335398A1, “METHODS FOR TREATING PANCREATIC CANCER WITH A COMBINATION OF DES-METHYL PATEAMINE A AND A CLASS I HDAC INHIBITOR” (Baylor University, priority 2023, published 2026).

One data set has as its system MIA PaCa-2 cells. Description: Metabolic flux analysis, basal mitochondrial respiration (OCR) (FIG. 8C left). The class given is cell-based. Particulars: MIA PaCa-2, total 18 h. The method, then:
FIG. 8C left panel presents the results of metabolic flux analysis showing basal mitochondrial respiration (OXPHOS) (oxygen consumption rate, OCR) in MIA PaCa-2 cells following treatment with combinations or single drugs. Treatment was for a total of 18 h, as mentioned in FIG. 8A. Statistical significance was determined by one-way ANOVA, ***p value<0.001, *p value<0.01. FIG. 8C right panel presents the results of quantification of glutamine consumption. Cells were treated as mentioned in FIG. 8A. Prior to the metabolic measurements cells were starved of glucose, glutamine, and pyruvate for 1-hour after which glutamine was added and response was recorded as ΔOCR (i.e. OCR before and after glutamine addition). Statistical significance was determined by one-way ANOVA, ****p value<0.0001, ***p value<0.0005.
Because reprograming/augmentation of cellular metabolism by c-MYC is known to support oncogenesis, the Seahorse XF analyzer was used to assess the impact of the treatments on c-MYC-driven metabolism including ATP production, glycolysis, and mitochondrial oxidative phosphorylation (OXPHOS). Extracellular acidification rates, also known as proton efflux rate (PER), were measured for glycolysis and mitochondrial oxygen consumption rates (OCR) for OXPHOS. We utilized the 6 h exposure followed by 18 h washout strategy for romidepsin described earlier. […]

Another data set relates to MIA PaCa-2 xenograft. The data set can be described thus: MIA PaCa-2 xenograft model of PDAC, tumor growth (FIG. 2A). The data set is classed as in vivo, athymic nude mice. Particulars: IP; romidepsin 0.75 mg/kg, DMPatA 0.075 mg/kg; once every four days 2 weeks, then every seven days 5-6 weeks. From the text: FIGS. 2A and 2B illustrate the results of a MIA PaCa-2 xenograft model of PDAC in male athymic nude mice. FIG. 2A compares tumor growth (mm^3) in mice treated with the indicated concentrations of combination, romidepsin and DMPatA using IP route and vehicles described in the materials and methods section below. FIG. 2B compares body weight (g) of mice treated with the combination and single agents following treatment. FIGS. 2C and 2D compare quantification of H3K9ac and c-MYC antibodies. Frozen sections from MIA PaCa-2 xenograft tumor tissues were subjected to immunohistochemical analysis using antibodies against H3K9ac, and c-MYC. Fluorescence images were captured using fluorescent microscopy and the fluorescent signal from H3K9ac and c-MYC antibodies were quantified. To quantify fluorescence intensity at least 500 cells per condition were measured for each antibody at 40× magnification. The median of the signal intensity is shown. Statistical significance was determined by one-way ANOVA using Tukey multiple comparisons test, ****p value<0.0001.
Animal studies were performed according to Institutional Animal Care and Use Committee (IACUC) protocol number AC-AABD2601. Following the establishment of initial dose levels for individual drugs, efficacy of the combination and single agents in a MIA PaCa-2 xenograft model was assessed at a tolerable dose and schedule. […]

The conditions of data set [1]: patients, 4-hour infusion; cited from earlier work.

Turning to `C/C=C1\NC(=O)[C@H]2CSSCC/C=C/[C@H](CC(=O)N[C@H](C(C)C)C(=O)N2)OC(=O)[C@H](C(C)C)NC1=O` [romidepsin], in the data set on MIA PaCa-2 cells, the “mitochondrial function (OCR)” value is given as “impaired mitochondrial function”. In the data set with MIA PaCa-2 xenograft, the tumor volume entry is recorded as “regression in tumor volume”. Besides, the half-life result in data set [1] is “approximately 3.5 hour”.
